Test results reported in publication PMC8622523, “New Diterpenoids from Mesona procumbens with Antiproliferative Activities Modulate Cell Cycle Arrest and Apoptosis in Human Leukemia Cancer Cells” (Pharmaceuticals, 2021).

Tests used:
hepatoma = test system: hepatoma; design: method as in PMID 30835539; settings: read-out: anti-hepatoma IC50; cited from earlier work
[1] = test system: Hep-3B (human liver carcinoma); assay: Cytotoxicity assay (Cell Counting Kit-8), Hep-3B; assay type: cell-based; settings: 72 h of drug treatment, means ± SD of 3 independent experiments
Method: (§1) A549 (human lung carcinoma), Hep-3B (human liver carcinoma), PC-3 (human prostate carcinoma), HT29 (human colon carcinoma), U937 (human monoblastic leukemia), and RAW 264.7 cells were purchased from the Food Industry Research and Development Institute (Hsinchu, Taiwan) and cultured in 10% heat-inactivated fetal bovine serum (FBS) in DMEM or RPMI-1640. Cell viability was determined by using Cell Counting Kit-8 (CCK-8; Dojindo, Rockville, MD, USA) according to the manufacturer’s instructions. All experiments were performed in triplicate.

[2] = test system: U937 (human monoblastic leukemia); assay: Cytotoxicity assay (Cell Counting Kit-8), U937; assay type: cell-based; settings: for IC50: 72 h of drug treatment, Cell Counting Kit-8, means ± SD of 3 independent experiments; for times less potent than 1 and 2: U937 cell lines, SAR comparison
Method: as §1

[3] = test system: PC-3 (human prostate carcinoma); assay: Cytotoxicity assay (Cell Counting Kit-8), PC-3; assay type: cell-based; settings: 72 h of drug treatment, means ± SD of 3 independent experiments
Method: as §1

[4] = test system: HT29 (human colon carcinoma); assay: Cytotoxicity assay (Cell Counting Kit-8), HT29; assay type: cell-based; settings: 72 h of drug treatment, means ± SD of 3 independent experiments
Method: as §1

[5] = test system: A549 (human lung carcinoma); assay: Cytotoxicity assay (Cell Counting Kit-8), A549; assay type: cell-based; settings: 72 h of drug treatment, means ± SD of 3 independent experiments
Method: as §1

[6] = test system: normal mouse RAW 264.7 macrophages; assay: Cytotoxicity assay (Cell Counting Kit-8), RAW 264.7; assay type: cell-based; settings: for IC50: normal mouse macrophage cell line, 72 h of drug treatment, Cell Counting Kit-8; for toxicity against normal mouse RAW 264.7 macrophages compared with cancer cells: in words
Method: as §1

[7] = test system: A549, Hep-3B, PC-3, HT29, and U937 cancer cells; assay: Antiproliferative activity, panel of five cancer cell lines; assay type: cell-based; settings: Homo sapiens, read-out: IC50 values, range over five cancer cell lines
Method: as §1

[8] = test system: human breast cancer cell line MCF-7; design: method as in PMID 15639346; settings: cited from earlier work
U937 cells [9] = assay: Cell cycle and sub-G1 analysis by flow cytometry (PI staining); assay type: cell-based, human; settings: for time course cell cycle analysis: 5 μM mesonol A or 10 μM mesonol B, 3-24 h; for effect of NAC pretreatment on compound-induced cell cycle change (sub-G1 accumulation or G2/M arrest): 10 mM NAC for 1 h, then 5 µM mesonol A 12 h or 10 µM mesonol B 6 h
Method: U937 cells were treated with mesonols A (1) or B (2), dosage range: 0.625–10 µM, for the specified time period, fixed in ice-cold 70% ethanol in PBS, suspended in Krishan’s reagent (0.05 mg/mL propidium iodide (PI), 0.1% sodium citrate, 0.02 mg/mL ribonuclease A and 0.3% NP-40), and incubated on ice for 30 min. Data acquisition for 10,000 events was performed with an FACScan system (Becton Dickinson). The distribution of cells in the different phases of the cell cycle was analyzed from the DNA histograms using CELL Quest software. All experiments were performed in triplicate.

U937 cells [10] = assay: Western blot analysis of cell cycle regulators and apoptosis-related proteins; assay type: cell-based, human
Method: Cells were lysed in RIPA buffer with phenylmethylsulfonyl fluoride (PMSF; Beyotime Biotechnology, Jiangsu, China). The protein concentration was determined using a Bio-Rad protein assay system (Bio-Rad, Hercules, CA, USA). Equivalent amounts of proteins were separated by SDS–PAGE and then transferred to polyvinylidene difluoride membranes (Bio-Rad). After blocking in TBS containing 5% nonfat milk, the membranes were incubated with primary antibodies (1:1000 dilution) at 4 °C for 12 h and then incubated with a horseradish peroxidase-conjugated secondary antibody (1:5000 dilution). Signals were detected on X-ray film using an ECL detection system (Pierce, Rockford, IL, USA). The relative protein levels were calculated based on β-actin as the loading control.

U937 cells [11] = assay: Measurement of intracellular ROS generation (DCFDA); assay type: cell-based, human; settings: for intracellular ROS levels compared to control: 5 µM mesonol A or 10 µM mesonol B, 30 min, DCFH-DA
Method: U937 cells were seeded onto 96-well microplates at a final concentration of 1 × 10^5 cells per well and treated with mesonol A or B (5 or 10 µM) for 30 min with or without pretreatment with N-acetylcysteine (NAC) (10 mM) for 1 h. The cells were stained with 2′,7′-dichlorofluorescin diacetate (DCFDA) Cellular Reactive Oxygen Species Detection Assay Kit (Abcam, Cambridge, UK) solution (20 µM) and then incubated at 37 °C for 30 min in the dark. Fluorescence measurements were performed with a fluorescence plate reader (Bio-Rad, Hercules, CA, USA) at Ex/Em = 485/535 nm in end point mode in the presence of compounds, medium, or buffer. All experiments were performed in triplicate.

KYSE-150 cells = settings: cited from earlier work
KYSE-450 cells = settings: cited from earlier work
HL-60 cells = test system: HL-60 cells; design: method as in PMID 20851175; settings: cited from earlier work

Compound | IC50 ([6]; RAW264.7) [µM] | IC50 ([1]; Homo sapiens, Hep3B, 72 h) [µM] | IC50 ([2]; Homo sapiens, U-937, 72 h) [µM] | IC50 ([3]; Homo sapiens, 72 h) [µM] | IC50 ([4]; Homo sapiens, HT-29, 72 h) [µM] | IC50 ([5]; Homo sapiens, A549, 72 h) [µM] | other results
4α-hydroxy-17,19-dinor-ent-kaurane-16-one |  |  |  |  |  |  | IC50 (hepatoma): > 100 µM
CCc1c2c(nc3ccc(OC(=O)N4CCC(N5CCCCC5)CC4)cc13)-c1cc3c(c(=O)n1C2)COC(=O)[C@]3(O)CC [CPT-11, reference compound] |  |  |  |  |  |  | IC50 [1]: 23.2 ± 0.38 µM; IC50 [2]: 4.95 ± 0.43 µM; IC50 [3]: 31.03 ± 0.28 µM; IC50 [4]: 15.1 ± 0.48 µM; IC50 [5]: 15.3 ± 0.42 µM
CC1(C)CCCC2(C)C1CCC13CC(C(O)CC21)C(O)(CCl)C3O (stereo not drawn) [Compound 4, 12α,15β,16β-trihydroxy-17-chloro-ent-kaurane] | > 50 | 19.9 ± 0.73 | 8.25 ± 0.24 | 16 ± 0.21 | 12.6 ± 0.55 | 19.4 ± 0.38 | times less potent than 1 and 2 [2]: 2–3 times; IC50 [7]: 1.97 to 19.9 µM
CC1(C)CCC[C@]2(C)[C@@H]1CC[C@@]13C[C@@H](CC[C@H]12)[C@@](O)(CO)C3.CC1(C)CCC[C@]2(C)[C@@H]1CC[C@@]13C[C@@H](CC[C@H]12)[C@@](O)(CO)C3.O (single isomer, unassigned; ent-16) [ent-16β,17α-dihydroxykaurane] |  |  |  |  |  |  | cytotoxicity and apoptotic effects [8]: exhibit cytotoxicity and apoptotic effects
CC1(C)CCCC2(C)C1CCC13CC(C(O)CC21)C(O)(CO)C3O (stereo not drawn) [Compound 3, 12α,15β,16β,17-tetrahydroxy-ent-kaurane] | > 50 | 17.1 ± 0.73 |  | 16.5 ± 0.55 | 14.2 ± 0.31 | 17.1 ± 0.36 | IC50 [2]: 6.73 ± 0.36 µM; times less potent than 1 and 2 [2]: 2–3 times; IC50 [7]: 1.97 to 19.9 µM
CC1(C)CCCC2(C)C1CCC13C(O)C(C(=O)CC21)C(O)(CO)C3O (stereo not drawn) [Compound 6, 14β,15β,16β,17-tetrahydroxy-ent-kaur-12-one] | > 50 | > 20 | > 20 | > 20 | > 20 | > 20 | 
CC1(C)CCCC2(C)C1CCC13CC(C(O)CC21)C(O)(CO)C3O (stereo not drawn) [Compound 5, 12α,15β,16α,17-tetrahydroxy-ent-kaurane] |  |  |  |  |  |  | IC50 [6]: > 50 µM; IC50 [1]: > 20 µM; IC50 [2]: > 20 µM; IC50 [3]: > 20 µM; IC50 [4]: > 20 µM; IC50 [5]: > 20 µM
C=C1C2CC3C4(C)CCCC(C)(C)C4CCC3(C1O)C(O)C2O (stereo not drawn) [Compound 10, 13α,14β,15β-trihydroxyl-ent-atis-16-ene] | > 50 | > 20 | > 20 | > 20 | > 20 | > 20 | 
CC1(C)CCCC2(C)C1CCC13CC(C(=O)CC21)C(O)(CO)C3O (stereo not drawn) [Compound 7, 15β,16β,17-trihydroxy-ent-kaur-12-one] | > 50 | > 20 | > 20 | > 20 | > 20 | > 20 | 
C=C1C2CC3C4(C)CCCC(C)(C)C4CCC3(CC2O)C1O (stereo not drawn) [Compound 9, 13α,15β-trihydroxy-ent-atis-16(17)-ene] | > 50 | > 20 | > 20 | > 20 | > 20 | > 20 | 
CC1(C)CCCC2(C)C1CCC13CC(C(O)CC12)C(CO)C3=O (stereo not drawn) [Compound 2, 12α-hydroxy-16β-hydroxymethyl-ent-kaur-15-one] | > 50 | 7.06 ± 0.38 | 1.97 ± 0.09 | 4.19 ± 0.31 | 2.78 ± 0.03 | 7.39 ± 0.42 | toxicity against normal mouse RAW 264.7 macrophages compared with cancer cells [6]: less toxic against normal mouse RAW 264.7 macrophages; time course cell cycle analysis (U937 cells [9]): did not cause an obvious accumulation of cells in any phase but significantly increased apoptotic cells in the sub-G1 population; sub-G1 population (U937 cells [9]; 5 μM, 24 h): 6.33%; sub-G1 population (U937 cells [9]; 10 μM, 24 h): 53.86%; effect of NAC pretreatment on compound-induced cell cycle change (sub-G1 accumulation or G2/M arrest) (U937 cells [9]): significantly suppressed; PARP cleavage (U937 cells [10]; 10 µM, 6 h): significantly cleaved and activated; antiapoptotic proteins (Bcl-2, Bcl-xL) (U937 cells [10]; 10 µM, 6 h): decreases in antiapoptotic proteins, including Bcl-2 and Bcl-xL; caspase-9 and -3 activation (pro-caspase-9 and -3 protein levels) (U937 cells [10]; 10 µM, 6 h): induced the activation of caspase-9 and -3; proapoptosis-related proteins (Bax, cytochrome c, apaf-1) (U937 cells [10]; 10 µM, 6 h): increases in proapoptosis-related proteins, including Bax, cytochrome c and apaf-1; intracellular ROS levels compared to control (U937 cells [11]): significantly higher than those in control cells; intracellular ROS levels with NAC pretreatment (U937 cells [11]; 10 mM NAC 1 h, then 10 µM mesonol B 30 min): could be blocked by pretreatment with NAC; IC50 [7]: 1.97 to 19.9 µM
C=C1C(=O)[C@@]23[C@@H]4O[C@H]5O[C@@]2(O)[C@@H](O)[C@@H]2C(C)(C)CCC[C@]52[C@@H]3CC[C@@H]14 [xerophilusin B] |  |  |  |  |  |  | apoptosis and cell cycle arrest (KYSE-150 cells): induce apoptosis and G2/M phase cell cycle arrest; apoptosis and cell cycle arrest (KYSE-450 cells): induce apoptosis and G2/M phase cell cycle arrest
CC1(C)CCCC2(C)C1CCC13CC=C(CO)C1OC(=O)CC23 (centres unmarked) [Compound 11, sarcopetal-13(16)-en-17-ol-12,15-olide] | > 50 | > 20 | > 20 | > 20 | > 20 | > 20 | 
CC1(C)CCCC2(C)C1CCC13CC(C(O)CC12)C(O)(CO)C3=O (stereo not drawn) [Compound 1, 12α,16β,17-trihydroxy-ent-kaur-15-one] | > 50 | 12.1 ± 0.55 | 2.66 ± 0.14 | 12.5 ± 0.24 | 9.1 ± 0.38 | 17.4 ± 0.28 | toxicity against normal mouse RAW 264.7 macrophages compared with cancer cells [6]: less toxic against normal mouse RAW 264.7 macrophages; time course cell cycle analysis (U937 cells [9]): time-dependent accumulation of cells arrested in the G2/M phase; effect on cell population at G2/M phase (U937 cells [9]; 10 μM, 24 h): significant increase in the cell population at G2/M phase; effect of NAC pretreatment on compound-induced cell cycle change (sub-G1 accumulation or G2/M arrest) (U937 cells [9]): little to no effect; effect on percentage of sub-G1 population, dose response (U937 cells [9]; 0.625-10 μM, 24 h, plateau at 5 μM): dose-dependently increased the percentage of the sub-G1 population; G2/M progression proteins cdc25c, cyclin B1, CDK1 (U937 cells [10]; 5 µM, 12 h): decreases in the G2/M progression proteins cdc25c, cyclin B1, and CDK1; p21 protein level (U937 cells [10]; 5 µM, 12 h): significant increase in p21 protein; intracellular ROS levels compared to control (U937 cells [11]): did not induce an increase in intracellular ROS levels; IC50 [7]: 1.97 to 19.9 µM
C=C1C(=O)[C@@]23[C@H](O)C[C@@H]4C(C)(C)C(=O)CC[C@@]4(C)[C@@H]2CC[C@@H]1[C@H]3O [glaucocalyxin A] |  |  |  |  |  |  | apoptosis induction (HL-60 cells): induced apoptosis in HL-60 cells
